# Read-outs that look alike come from different tables or passages of the source.
# Legend:
# wild-type HIV-1 (IIIB) = assay: Anti-HIV-1 (IIIB) activity in MT-4 cell cultures, MTT method; type: cell-based; conditions: for anti-HIV-1 wild-type activity (in words): MT-4 cells, HIV-1 IIIB
# Procedure: (§1) The newly synthesized dihydroartemisinin triazole derivatives were evaluated for their inhibitory effects (IC50) on the replication of wild-type HIV-1 (IIIB) and HIV-2 (ROD) in MT-4 cell cultures, in parallel with their cytotoxicities (CC50) using the 3-(4,5-dimethylthiazol-2-yl)-2,5-diphenyl tetrazolium bromide (MTT) method. A series of nucleoside reverse transcriptase inhibitors (NRTIs)—i.e., azidothymidine (AZT), lamivudine (3TC) and didanosine (DDI)—and non-nucleoside reverse transcriptase inhibitors (NNRTIs)—i.e., nevirapine (NVP), efavirenz (EFV), and etravirine (ETR)—were included as reference compounds. The biological results are represented as IC50 and CC50 values in Table 3.
# HIV-2 (ROD) = assay: Anti-HIV-2 (ROD) activity in MT-4 cell cultures, MTT method; type: cell-based
# Procedure: as §1
# [1] = Cytotoxicity in mock-infected MT-4 cell cultures, MTT method; type: cell-based; conditions: human
# Procedure: as §1
# [2] = tested on: double reverse transcriptase mutant (K103N; Y181C) HIV-1 strain (RES056); assay: Activity against double reverse transcriptase mutant HIV-1 strain RES056 in MT-4 cell cultures, MTT method; type: cell-based; conditions: for IC50: Human immunodeficiency virus 1, MT4, read-out: IC50 HIV-1 Strain RES056; for inhibitory activity against RES056 (in words): K103N, Y181C double RT mutant HIV-1, MT-4 cells
# Procedure: as §1
# Most of the new triazole analogues of dihydroartemisinin are completely devoid of anti-HIV activity. […] The active molecules were also evaluated for their inhibitory activity against a double reverse transcriptase mutant (K103N; Y181C) HIV-1 strain (RES056). […] Therefore, the active β-tetralone derivatives most probably act via an NNRTI-type mode of action.
# MT-4 cells = assay: Cytotoxicity in mock-infected MT-4 cell cultures, MTT method; type: cell-based; conditions: cell culture
# Procedure: as §1
# [3] = Human immunodeficiency virus 1, IIIB, MT4, 50% protection of MT-4 cell cultures against virus-induced cytotoxicity, MTT method, read-out: IC50 HIV-1 Strain IIIB
# [4] = Human immunodeficiency virus 2, MT4, 50% protection of MT-4 cell cultures against virus-induced cytotoxicity, MTT method, read-out: IC50 HIV-2 Strain ROD
# [5] = mock-infected MT-4 cells, concentration reducing viability of mock-infected MT-4 cell cultures by 50%, MTT method, read-out: CC50
# [6] = concentration reducing viability of mock-infected MT-4 cell cultures by 50%, MTT method, read-out: CC50
# [7] = Human immunodeficiency virus 2, MT4, read-out: IC50 HIV-2 Strain ROD
Structure (SMILES),melting point [°C],IC50 (wild-type HIV-1 (IIIB); [3]) [µM],anti-HIV-1 wild-type activity (in words) (wild-type HIV-1 (IIIB)),IC50 (HIV-2 (ROD); [4]) [µM],"CC50 [1, 5] [µM]",IC50 [2] [µM],inhibitory activity against RES056 (in words) [2],IC50 (HIV-2 (ROD); [7]) [µM],also measured
COc1cc(Cn2nnc3c2CCC(C(=O)O[C@@H]2O[C@@H]4O[C@@]5(C)CCC6[C@H](C)CC[C@@H]([C@H]2C)[C@]64OO5)C3)cc(OC)c1OC (stereo partly drawn),80 to 81,,,,,,,,
"C[C@H]1[C@H](OCCn2nnc3c2-c2ccccc2CC3)O[C@@H]2O[C@@]3(C)CCC4[C@H](C)CC[C@@H]1[C@]42OO3 (stereo partly drawn) [Compound 8a, 1-(2-(((3R,6R,8aS,9R,10R,12R,12aR)-3,6,9-Trimethyldecahydro-12H-3,12-epoxy[1,2]dioxepino[4,3-i]isochromen-10-yl)oxy)ethyl)-4,5-dihydro-1H-naphtho[1,2-d][1,2,3]triazole]",,> 10.3,did not show any activity,> 10.3,> 10.3,,,,
"Cc1ccnc2c1NC(=O)c1cccnc1N2C1CC1 [Nevirapine, nevirapine]",,0.075,,> 15,,> 15,completely lose their inhibitory activity,,"CC50 [1, 6]: > 15 µM"
"Cc1cn([C@H]2C[C@H](N=[N+]=[N-])[C@@H](CO)O2)c(=O)[nH]c1=O [Azidothymidine, azidothymidine, reference compound]",,0.0064,,0.0082,,0.0071,,,CC50 [1]: > 7.5 µM
"O=c1[nH]cnc2c1ncn2[C@H]1CC[C@@H](CO)O1 [Didanosine, didanosine, reference compound]",,76,,82.1,,,,,CC50 [1]: > 212 µM
C[C@H]1[C@H](OCCn2nncc2-c2ccc(Br)c(Br)c2)O[C@@H]2O[C@@]3(C)CCC4[C@H](C)CC[C@@H]1[C@]42OO3 (stereo partly drawn),105 to 106,,,,,,,,
"Cc1cc(C#N)cc(C)c1Oc1nc(Nc2ccc(C#N)cc2)nc(N)c1Br [Etravirine, etravirine]",,,,,2.29,0.045,only slightly affected,> 2.29,"IC50 (wild-type HIV-1 (IIIB); Human immunodeficiency virus 1, MT4, read-out: IC50 HIV-1 Strain IIIB): 0.0034 µM"
C[C@H]1[C@H](OCCn2nnc3c2C[C@@H]2CC[C@@H]4[C@H](CC[C@]5(C)[C@@H](O)CC[C@@H]45)[C@@]2(C)C3)O[C@@H]2O[C@@]3(C)CCC4[C@H](C)CC[C@@H]1[C@]42OO3 (stereo partly drawn),96 to 97,,,,,,,,
"COc1ccc2c(c1)-c1nnn(CCO[C@@H]3O[C@@H]4O[C@@]5(C)CCC6[C@H](C)CC[C@@H]([C@H]3C)[C@]64OO5)c1CC2 (stereo partly drawn) [Compound 8e, 8-Methoxy-3-(2-(((3R,6R,8aS,9R,10R,12R,12aR)-3,6,9-trimethyldecahydro-12H-3,12-epoxy[1,2]dioxepino[4,3-i]isochromen-10-yl)oxy)ethyl)-4,5-dihydro-3H-naphtho[1,2-d][1,2,3]triazole]",,5.18,inhibitory to HIV-1 replication,,14.9,> 14.9,completely lose their inhibitory activity,> 14.9,cytotoxicity (in words) (MT-4 cells): limited cytotoxicity
"COc1cc2c(cc1OC)-c1nnn(CCO[C@@H]3O[C@@H]4O[C@@]5(C)CCC6[C@H](C)CC[C@@H]([C@H]3C)[C@]64OO5)c1CC2 (stereo partly drawn) [Compound 8c, 7,8-Dimethoxy-3-(2-(((3R,6R,8aS,9R,10R,12R,12aR)-3,6,9-trimethyldecahydro-12H-3,12-epoxy[1,2]dioxepino[4,3-i]isochromen-10-yl)oxy)ethyl)-4,5-dihydro-3H-naphtho[1,2-d][1,2,3]triazole]",,4.06,inhibitory to HIV-1 replication,,21.2,> 21.2,completely lose their inhibitory activity,> 21.2,cytotoxicity (in words) (MT-4 cells): limited cytotoxicity
"C[C@H]1[C@H](OCCn2nnc3c2CCc2ccccc2-3)O[C@@H]2O[C@@]3(C)CCC4[C@H](C)CC[C@@H]1[C@]42OO3 (stereo partly drawn) [Compound 8b, 3-(2-(((3R,6R,8aS,9R,10R,12R,12aR)-3,6,9-Trimethyldecahydro-12H-3,12-epoxy[1,2]dioxepino[4,3-i]isochromen-10-yl)oxy)ethyl)-4,5-dihydro-3H-naphtho[1,2-d][1,2,3]triazole]",104 to 105,2.78,inhibitory to HIV-1 replication,,31.5,> 31.5,completely lose their inhibitory activity,> 31.5,cytotoxicity (in words) (MT-4 cells): limited cytotoxicity
"O=C1Nc2ccc(Cl)cc2[C@@](C#CC2CC2)(C(F)(F)F)O1 [Efavirenz, efavirenz]",,0.0024,,> 6.3,,0.18,only slightly affected,,"CC50 [1, 6]: > 6.3 µM"
"Nc1ccn([C@@H]2CS[C@H](CO)O2)c(=O)n1 [Lamivudine, lamivudine, reference compound]",,2.53,,9.9,,,,,CC50 [1]: > 87.2 µM
